Measurements published in PubChem BioAssay AID1259407 (Chemical Carcinogenesis Research Information System (CCRIS), 2018).
Active and inactive are the calls of the source. How the calls were made is not given here.

System: CCRIS mutagenicity, Ames/micronucleus/aberration tests
Experiment: CCRIS mutagenicity studies
[1] = Test System: AMES SALMONELLA TYPHIMURIUM, Strain/Indicator: TA98, Metabolic Activation: NONE, Method: PREINCUBATION
[2] = Test System: AMES SALMONELLA TYPHIMURIUM, Strain/Indicator: TA100, Metabolic Activation: NONE, Method: PREINCUBATION
[3] = Test System: AMES SALMONELLA TYPHIMURIUM, Strain/Indicator: TA1535, Metabolic Activation: NONE, Method: PREINCUBATION

For `c1ccc(Oc2ccccc2)cc1`, the mutagenic call (Test System: AMES SALMONELLA TYPHIMURIUM, Strain/Indicator: TA98, Metabolic Activation: HAMSTER, LIVER, S-9, AROCLOR 1254, Method: PREINCUBATION) was “inactive; negative”, the mutagenic call [1] was “inactive; negative” and the mutagenic call (Test System: AMES SALMONELLA TYPHIMURIUM, Strain/Indicator: TA98, Metabolic Activation: RAT, LIVER, S-9, AROCLOR 1254, Method: PREINCUBATION) was “inactive; negative”. The mutagenic call (Test System: AMES SALMONELLA TYPHIMURIUM, Strain/Indicator: TA100, Metabolic Activation: HAMSTER, LIVER, S-9, AROCLOR 1254, Method: PREINCUBATION) was “inactive; negative”, the mutagenic call [2] was “inactive; negative” and the mutagenic call (Test System: AMES SALMONELLA TYPHIMURIUM, Strain/Indicator: TA100, Metabolic Activation: RAT, LIVER, S-9, AROCLOR 1254, Method: PREINCUBATION) was “inactive; negative”. For the same compound, the mutagenic call (Test System: AMES SALMONELLA TYPHIMURIUM, Strain/Indicator: TA1535, Metabolic Activation: HAMSTER, LIVER, S-9, AROCLOR 1254, Method: PREINCUBATION) was “inactive; negative”, the mutagenic call [3] was “inactive; negative” and the mutagenic call (Test System: AMES SALMONELLA TYPHIMURIUM, Strain/Indicator: TA1535, Metabolic Activation: RAT, LIVER, S-9, AROCLOR 1254, Method: PREINCUBATION) was “inactive; negative”. The mutagenic call (Test System: AMES SALMONELLA TYPHIMURIUM, Strain/Indicator: TA1537, Metabolic Activation: HAMSTER, LIVER, S-9, AROCLOR 1254, Method: PREINCUBATION) was “inactive; negative”, the mutagenic call (Test System: AMES SALMONELLA TYPHIMURIUM, Strain/Indicator: TA1537, Metabolic Activation: NONE, Method: PREINCUBATION) was “inactive; negative” and the mutagenic call (Test System: AMES SALMONELLA TYPHIMURIUM, Strain/Indicator: TA1537, Metabolic Activation: RAT, LIVER, S-9, AROCLOR 1254, Method: PREINCUBATION) was “inactive; negative”.
`O=S(=O)(O)c1ccc(N=Nc2c(O)ccc3cc(S(=O)(=O)O)ccc23)cc1` was tested, and the mutagenic call (End Point: IN VITRO CHROMOSOMAL ABERRATIONS, Test System: CHO CELLS, Metabolic Activation: NONE) was “inactive; negative”, the mutagenic call (End Point: IN VITRO CHROMOSOMAL ABERRATIONS, Test System: CHO CELLS, Metabolic Activation: RAT, LIVER, S-9, AROCLOR 1254) was “inactive; negative” and the mutagenic call (Test System: AMES SALMONELLA TYPHIMURIUM, Strain/Indicator: TA97, Metabolic Activation: HAMSTER, LIVER, S-9, AROCLOR 1254 (10%), Method: PREINCUBATION) was “inactive; negative”. The mutagenic call (Test System: AMES SALMONELLA TYPHIMURIUM, Strain/Indicator: TA97, Metabolic Activation: HAMSTER, LIVER, S-9, AROCLOR 1254 (30%), Method: PREINCUBATION) was “inactive; negative”, the mutagenic call (Test System: AMES SALMONELLA TYPHIMURIUM, Strain/Indicator: TA97, Metabolic Activation: NONE, Method: PREINCUBATION) was “inactive; negative” and the mutagenic call (Test System: AMES SALMONELLA TYPHIMURIUM, Strain/Indicator: TA97, Metabolic Activation: RAT, LIVER, S-9, AROCLOR 1254 (10%), Method: PREINCUBATION) was “inactive; negative”. The mutagenic call (Test System: AMES SALMONELLA TYPHIMURIUM, Strain/Indicator: TA97, Metabolic Activation: RAT, LIVER, S-9, AROCLOR 1254 (30%), Method: PREINCUBATION) was “inactive; negative”, the mutagenic call (Test System: AMES SALMONELLA TYPHIMURIUM, Strain/Indicator: TA98, Metabolic Activation: HAMSTER, LIVER, S-9, AROCLOR 1254 (10%), Method: PREINCUBATION) was “inactive; negative” and the mutagenic call (Test System: AMES SALMONELLA TYPHIMURIUM, Strain/Indicator: TA98, Metabolic Activation: HAMSTER, LIVER, S-9, AROCLOR 1254 (30%), Method: PREINCUBATION) was “inactive; negative”. The mutagenic call [1] was “inactive; negative”, the mutagenic call (Test System: AMES SALMONELLA TYPHIMURIUM, Strain/Indicator: TA98, Metabolic Activation: NONE, Method: STANDARD PLATE) was “inactive; negative” and the mutagenic call (Test System: AMES SALMONELLA TYPHIMURIUM, Strain/Indicator: TA98, Metabolic Activation: RAT LIVER S-9, AROCLOR 1254, Method: STANDARD PLATE) was “inactive; negative”. The mutagenic call (Test System: AMES SALMONELLA TYPHIMURIUM, Strain/Indicator: TA98, Metabolic Activation: RAT, LIVER, S-9, AROCLOR 1254 (10%), Method: PREINCUBATION) was “inactive; negative”, the mutagenic call (Test System: AMES SALMONELLA TYPHIMURIUM, Strain/Indicator: TA98, Metabolic Activation: RAT, LIVER, S-9, AROCLOR 1254 (30%), Method: PREINCUBATION) was “inactive; negative” and the mutagenic call (Test System: AMES SALMONELLA TYPHIMURIUM, Strain/Indicator: TA98, Metabolic Activation: RAT, LIVER, S-9, PHENOBARBITAL, Method: PREINCUBATION) was “inactive; negative”. For the same compound, the mutagenic call (Test System: AMES SALMONELLA TYPHIMURIUM, Strain/Indicator: TA100, Metabolic Activation: HAMSTER, LIVER, S-9, AROCLOR 1254 (10%), Method: PREINCUBATION) was “inactive; negative”, the mutagenic call (Test System: AMES SALMONELLA TYPHIMURIUM, Strain/Indicator: TA100, Metabolic Activation: HAMSTER, LIVER, S-9, AROCLOR 1254 (30%), Method: PREINCUBATION) was “inactive; negative” and the mutagenic call [2] was “inactive; negative”. For the same compound, the mutagenic call (Test System: AMES SALMONELLA TYPHIMURIUM, Strain/Indicator: TA100, Metabolic Activation: NONE, Method: STANDARD PLATE) was “inactive; negative”, the mutagenic call (Test System: AMES SALMONELLA TYPHIMURIUM, Strain/Indicator: TA100, Metabolic Activation: RAT LIVER S-9, AROCLOR 1254, Method: STANDARD PLATE) was “inactive; negative” and the mutagenic call (Test System: AMES SALMONELLA TYPHIMURIUM, Strain/Indicator: TA100, Metabolic Activation: RAT, LIVER, S-9, AROCLOR 1254 (10%), Method: PREINCUBATION) was “inactive; negative”. The mutagenic call (Test System: AMES SALMONELLA TYPHIMURIUM, Strain/Indicator: TA100, Metabolic Activation: RAT, LIVER, S-9, AROCLOR 1254 (30%), Method: PREINCUBATION) was “inactive; negative”, the mutagenic call (Test System: AMES SALMONELLA TYPHIMURIUM, Strain/Indicator: TA100, Metabolic Activation: RAT, LIVER, S-9, PHENOBARBITAL, Method: PREINCUBATION) was “inactive; negative” and the mutagenic call (Test System: AMES SALMONELLA TYPHIMURIUM, Strain/Indicator: TA1535, Metabolic Activation: HAMSTER, LIVER, S-9, AROCLOR 1254 (10%), Method: PREINCUBATION) was “inactive; negative”. The mutagenic call (Test System: AMES SALMONELLA TYPHIMURIUM, Strain/Indicator: TA1535, Metabolic Activation: HAMSTER, LIVER, S-9, AROCLOR 1254 (30%), Method: PREINCUBATION) was “inactive; negative”, the mutagenic call [3] was “inactive; negative” and the mutagenic call (Test System: AMES SALMONELLA TYPHIMURIUM, Strain/Indicator: TA1535, Metabolic Activation: RAT, LIVER, S-9, AROCLOR 1254 (10%), Method: PREINCUBATION) was “inactive; negative”. For the same compound, the mutagenic call (Test System: AMES SALMONELLA TYPHIMURIUM, Strain/Indicator: TA1535, Metabolic Activation: RAT, LIVER, S-9, AROCLOR 1254 (30%), Method: PREINCUBATION) was “inactive; negative”.
With `O=C(Nc1nc(-c2ccc([N+](=O)[O-])o2)cs1)C(F)(F)F` the mutagenic call (Test System: AMES SALMONELLA TYPHIMURIUM, Strain/Indicator: TA100, Metabolic Activation: RAT, LIVER, S-9, KC500 OR PHENOBARBITAL, Method: LIQUID SUSPENSION) was “active; positive” and the mutagenic call (Test System: E. COLI WP2, Strain/Indicator: WP2, Metabolic Activation: NONE, Method: SPOT) was “active; positive”.
With `CC[C@@]1(O)C[C@H](O[C@H]2C[C@H](N(C)C)[C@H](O)[C@H](C)O2)c2c(cc3c(c2O)C(=O)c2c(O)ccc(O)c2C3=O)[C@H]1C(=O)OC` the mutagenic call (Test System: AMES SALMONELLA TYPHIMURIUM, Strain/Indicator: TA102, Metabolic Activation: NONE, Method: STANDARD PLATE) was “active; positive”, the mutagenic call (Test System: AMES SALMONELLA TYPHIMURIUM, Strain/Indicator: TA104, Metabolic Activation: NONE, Method: STANDARD PLATE) was “active; positive” and the mutagenic call (Test System: AMES SALMONELLA TYPHIMURIUM, Strain/Indicator: TA1537, Metabolic Activation: NONE) was “active; positive”. For the same compound, the mutagenic call (Test System: AMES SALMONELLA TYPHIMURIUM, Strain/Indicator: TA1537, Metabolic Activation: RAT, LIVER, S-9, AROCLOR 1254) was “active; positive”.
`OCCOc1ccccc1` was tested, and the mutagenic call (Test System: Ames Salmonella typhimurium, Strain/Indicator: TA98, Metabolic Activation: None, Method: Preincubation) was “inactive; negative”, the mutagenic call (Test System: Ames Salmonella typhimurium, Strain/Indicator: TA98, Metabolic Activation: Rat, Liver, S-9, Phenobarbital and 5,6-benzoflavone, Method: Preincubation) was “inactive; negative” and the mutagenic call (Test System: Ames Salmonella typhimurium, Strain/Indicator: TA100, Metabolic Activation: None, Method: Preincubation) was “inactive; negative”. The mutagenic call (Test System: Ames Salmonella typhimurium, Strain/Indicator: TA100, Metabolic Activation: Rat, Liver, S-9, Phenobarbital and 5,6-benzoflavone, Method: Preincubation) was “inactive; negative”, the mutagenic call (Test System: Ames Salmonella typhimurium, Strain/Indicator: TA1535, Metabolic Activation: None, Method: Preincubation) was “inactive; negative” and the mutagenic call (Test System: Ames Salmonella typhimurium, Strain/Indicator: TA1535, Metabolic Activation: Rat, Liver, S-9, Phenobarbital and 5,6-benzoflavone, Method: Preincubation) was “inactive; negative”. For the same compound, the mutagenic call (Test System: Ames Salmonella typhimurium, Strain/Indicator: TA1537, Metabolic Activation: None, Method: Preincubation) was “inactive; negative”, the mutagenic call (Test System: Ames Salmonella typhimurium, Strain/Indicator: TA1537, Metabolic Activation: Rat, Liver, S-9, Phenobarbital and 5,6-benzoflavone, Method: Preincubation) was “inactive; negative” and the mutagenic call (Test System: E. coli, Strain/Indicator: WP2uvrA/pKM101, Metabolic Activation: None, Method: Preincubation) was “inactive; negative”. For the same compound, the mutagenic call (Test System: E. coli, Strain/Indicator: WP2uvrA/pKM101, Metabolic Activation: Rat, Liver, S-9, Phenobarbital and 5,6-benzoflavone, Method: Preincubation) was “inactive; negative”.
